PubChem BioAssay (NCI)
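Five concentrations, 48 hours, 96-well plates. TGI: concentration producing complete growth inhibition.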

How the values were obtained:
Assay in all cases: growth of human tumour cells (NCI), 48 h
[1] = test system: SK-OV-3 ovarian
[2] = test system: SF-268 CNS
[3] = test system: UACC-62 melanoma
[4] = test system: SW-620 colon
[5] = test system: NCI-H23 lung
[6] = test system: SR leukemia
[7] = test system: EKVX NSCLC
[8] = test system: NCI-H226 lung
[9] = test system: SN12C renal
[10] = test system: SF-295 CNS
[11] = test system: MDA-MB-435
[12] = test system: SK-MEL-28 melanoma
[13] = test system: CCRF-CEM leukemia
[14] = test system: DU-145 prostate
[15] = test system: CAKI-1 renal
[16] = test system: UACC-257 melanoma
[17] = test system: SF-539 CNS
[18] = test system: HT29 colon
[19] = test system: MALME-3M melanoma
[20] = test system: RXF 393 renal
[21] = test system: NCI-H460 lung
[22] = test system: OVCAR-4 ovarian
[23] = test system: M14 melanoma
[24] = test system: U251 CNS
[25] = test system: SNB-75 CNS
[26] = test system: HS 578T breast
[27] = test system: A549 NSCLC
[28] = test system: NCI-H522 lung
[29] = test system: BT-549 breast
[30] = test system: COLO 205 colon
[31] = test system: TK-10 renal
[32] = test system: ACHN renal
[33] = test system: 786-0 renal
[34] = test system: UO-31 renal
[35] = test system: HCT-116 colon
[36] = test system: IGROV1 ovarian
[37] = test system: OVCAR-5 ovarian
[38] = test system: A498 renal
[39] = test system: SK-MEL-5 melanoma
[40] = test system: PC-3 prostate
[41] = test system: MDA-N
[42] = test system: HOP-92 NSCLC
[43] = test system: MDA-MB-231 breast
[44] = test system: RPMI-8226 leukemia
[45] = test system: K-562 leukemia
[46] = test system: KM12 colon
[47] = test system: HL-60(TB) leukemia
[48] = test system: SNB-19 CNS
[49] = test system: NCI/ADR-RES ovarian
[50] = test system: OVCAR-8 ovarian
[51] = test system: HCT-15 colon
[52] = test system: MOLT-4 leukemia
[53] = test system: T-47D breast
[54] = test system: SK-MEL-2 melanoma

For `Clc1nc(Nc2nc3ccccc3[nH]2)nc(Cl)c1Cc1ccccc1`, the TGI [1] was greater than 100 µM, the TGI [2] was greater than 100 µM and the TGI [3] was greater than 100 µM. For the same compound, the TGI [4] was greater than 100 µM, the TGI [5] was greater than 100 µM and the TGI [6] was greater than 100 µM. It also gave a TGI [7] greater than 100 µM, a TGI [8] greater than 100 µM and a TGI [9] greater than 100 µM. It also gave a TGI [10] greater than 100 µM, a TGI [11] greater than 100 µM and a TGI [12] greater than 100 µM. It also gave a TGI [13] greater than 100 µM, a TGI [14] greater than 100 µM and a TGI [15] greater than 100 µM. The TGI [16] was greater than 100 µM, the TGI [17] was greater than 100 µM and the TGI [18] was greater than 100 µM. The TGI [19] was greater than 100 µM, the TGI [20] was greater than 100 µM and the TGI [21] was greater than 100 µM. For the same compound, the TGI [22] was greater than 100 µM, the TGI [23] was greater than 100 µM and the TGI [24] was greater than 100 µM. For the same compound, the TGI [25] was greater than 100 µM, the TGI [26] was greater than 100 µM and the TGI [27] was greater than 100 µM. The TGI [28] was greater than 100 µM, the TGI [29] was greater than 100 µM and the TGI [30] was greater than 100 µM. It also gave a TGI [31] greater than 100 µM, a TGI [32] greater than 100 µM and a TGI [33] greater than 100 µM. It also gave a TGI [34] greater than 100 µM, a TGI [35] greater than 100 µM and a TGI [36] greater than 100 µM. The TGI [37] was greater than 100 µM, the TGI [38] was greater than 100 µM and the TGI [39] was greater than 100 µM. The TGI [40] was greater than 100 µM, the TGI [41] was greater than 100 µM and the TGI [42] was 70.9 µM. The TGI [43] was greater than 100 µM, the TGI [44] was greater than 100 µM and the TGI [45] was greater than 100 µM. For the same compound, the TGI [46] was greater than 100 µM, the TGI [47] was greater than 100 µM and the TGI [48] was greater than 100 µM. The TGI [49] was greater than 100 µM, the TGI [50] was greater than 100 µM and the TGI [51] was greater than 100 µM. The TGI [52] was greater than 100 µM, the TGI [53] was greater than 100 µM and the TGI [54] was greater than 100 µM.
